The source made the active and inactive calls.

A word on the AC50: it is the concentration giving half of the maximal activity seen. By EC50 is commonly meant the concentration that produces a half-maximal response.

Data set [1] has as its target Cytochrome P450 2C19 (Homo sapiens, UniProt P33261). As to the kind of experiment: Cytochrome panel assay with activity outcomes. Panel member name: p450-cyp2c19 Compounds with AC50 equal or less than 10 uM are considered active. It counts as functional.
Data set [2] addresses Cytochrome P450 2D6 (Homo sapiens, UniProt P10635).
The target of data set [3] is T1, Protein skinhead-1 (Caenorhabditis elegans, UniProt P34707).
T1 sequence (P34707 whole entry): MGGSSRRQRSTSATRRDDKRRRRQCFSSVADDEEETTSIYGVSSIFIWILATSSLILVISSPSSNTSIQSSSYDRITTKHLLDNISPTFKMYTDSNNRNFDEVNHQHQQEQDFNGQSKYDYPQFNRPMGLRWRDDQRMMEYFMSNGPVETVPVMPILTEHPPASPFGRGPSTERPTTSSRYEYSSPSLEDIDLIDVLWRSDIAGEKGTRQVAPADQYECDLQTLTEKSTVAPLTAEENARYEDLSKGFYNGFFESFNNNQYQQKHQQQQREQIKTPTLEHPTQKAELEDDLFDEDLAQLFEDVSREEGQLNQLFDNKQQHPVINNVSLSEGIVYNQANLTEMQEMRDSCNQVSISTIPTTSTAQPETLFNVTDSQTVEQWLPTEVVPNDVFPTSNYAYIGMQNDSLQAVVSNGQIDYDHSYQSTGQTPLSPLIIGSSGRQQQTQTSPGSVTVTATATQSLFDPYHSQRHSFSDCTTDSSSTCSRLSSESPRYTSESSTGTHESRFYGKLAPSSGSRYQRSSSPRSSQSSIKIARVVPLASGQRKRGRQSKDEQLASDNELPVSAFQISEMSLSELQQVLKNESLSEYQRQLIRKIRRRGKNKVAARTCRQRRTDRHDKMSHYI
It counts as functional.

The nature of data set [4]: microbe, parasite or virus in culture. It counts as functional. The settings on record: Mycobacterium tuberculosis.
A short description of data set [5]: viability of uninfected HEp-2 cells – cell-based, HTS, cytotoxicity control for RSV inhibitor project, dose response (AID 2410). It counts as functional. The following applies: human respiratory syncytial virus.
The target of data set [6] is T2, Cytochrome P450 1A2 (Homo sapiens, UniProt P05177).
T2 sequence (P05177 whole entry): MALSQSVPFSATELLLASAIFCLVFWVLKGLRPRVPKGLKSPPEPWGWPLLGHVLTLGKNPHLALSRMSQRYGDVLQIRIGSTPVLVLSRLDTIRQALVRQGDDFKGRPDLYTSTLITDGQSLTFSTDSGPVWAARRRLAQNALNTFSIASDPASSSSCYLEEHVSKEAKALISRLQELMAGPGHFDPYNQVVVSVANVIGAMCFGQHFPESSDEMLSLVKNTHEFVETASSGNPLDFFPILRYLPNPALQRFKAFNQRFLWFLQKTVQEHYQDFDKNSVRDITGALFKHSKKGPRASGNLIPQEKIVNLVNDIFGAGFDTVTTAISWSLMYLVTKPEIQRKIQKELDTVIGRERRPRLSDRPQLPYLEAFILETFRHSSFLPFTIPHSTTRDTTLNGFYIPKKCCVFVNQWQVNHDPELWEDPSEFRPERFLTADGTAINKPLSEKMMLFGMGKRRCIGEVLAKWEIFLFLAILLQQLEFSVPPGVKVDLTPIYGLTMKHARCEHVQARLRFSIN

Data set [7] is described as follows: Luminescence Cell-Based Dose Retest to Confirm Inhibitors of Cancer Stem Cells. [Related pubchem assays (depositor defined):AID2717, AID2721]. It is filed as functional. The following applies: Homo sapiens.
The test system of data set [8] is INS1. The data set is described as follows: INS-1E survival protection against cytokine death – cell-based, luminescence, retest, dose response (AID 449756).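 Further: cell death triggered by IL-1 beta plus TNF-alpha plus IFN-gamma mixture; protective hits raise ATP signal compared with cytokine alone wells.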 It is filed as functional. The following applies: Rattus norvegicus.
The target in data set [9] is T3, Polyadenylate-binding protein 1 (Homo sapiens, UniProt P11940). As to the kind of experiment: MLLE binding blockers, Cy5 peptide tracer – biochemical, fluorescence polarization, Cy5-PAM2 peptide, secondary, miRNA deadenylation inhibitor project, dose response (AID 602260). It is filed as functional. The following applies: read-out: IC50_Mean. A general note: In fluorescence polarisation assays a small probe gives low polarisation when free and higher when bound to something large.
T3 sequence (P11940 whole entry): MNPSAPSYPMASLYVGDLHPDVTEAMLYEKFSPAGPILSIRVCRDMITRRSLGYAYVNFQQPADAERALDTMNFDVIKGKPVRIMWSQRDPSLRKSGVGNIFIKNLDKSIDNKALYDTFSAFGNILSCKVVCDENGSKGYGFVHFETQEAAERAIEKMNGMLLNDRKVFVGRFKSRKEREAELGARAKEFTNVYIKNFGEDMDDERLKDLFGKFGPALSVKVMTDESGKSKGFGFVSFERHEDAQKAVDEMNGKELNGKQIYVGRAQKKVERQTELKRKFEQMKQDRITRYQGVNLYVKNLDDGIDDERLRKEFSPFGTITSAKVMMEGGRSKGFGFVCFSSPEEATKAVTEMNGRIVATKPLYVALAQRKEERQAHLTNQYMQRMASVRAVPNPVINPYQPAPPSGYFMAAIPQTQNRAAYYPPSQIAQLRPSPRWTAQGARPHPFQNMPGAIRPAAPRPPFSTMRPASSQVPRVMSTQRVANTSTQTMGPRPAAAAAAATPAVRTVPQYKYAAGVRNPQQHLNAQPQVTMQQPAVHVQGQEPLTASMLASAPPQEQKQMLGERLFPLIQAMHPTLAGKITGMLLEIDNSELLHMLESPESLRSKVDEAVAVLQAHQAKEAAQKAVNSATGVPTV

Data set [10] addresses T3, Polyadenylate-binding protein 1. As to the kind of experiment: MLLE domain peptide-binding blockers, IC50 – biochemical, fluorescence polarization, FITC-PAM2 peptide, dose response (AID 602259). It counts as functional. The following applies: read-out: IC50_Mean.
A short description of data set [11]: Luminescence Cell-Based Dose Response HTS to Identify Activators of Luciferase Translation or Activity in H4 […] Cells. [Related pubchem assays: 1829 (Project Summary), 1814 (Primary HTS)]. It is filed as functional.
The test system of data set [12] is H4. The data set is described as follows: Luminescence Cell-Based Dose Response HTS to Identify Activators of 5'UTR Stem-Loop Driven Prion Protein mRNA Translation in H4 Neuroglioblastoma Cells. [Related pubchem assays: 1829 (Project Summary), 1814 (Primary HTS)]. It counts as functional. The following applies: Homo sapiens.
The target in data set [13] is T4, RNA-binding protein pos-1 (Caenorhabditis elegans, UniProt G5EF15).
T4 sequence (G5EF15 whole entry): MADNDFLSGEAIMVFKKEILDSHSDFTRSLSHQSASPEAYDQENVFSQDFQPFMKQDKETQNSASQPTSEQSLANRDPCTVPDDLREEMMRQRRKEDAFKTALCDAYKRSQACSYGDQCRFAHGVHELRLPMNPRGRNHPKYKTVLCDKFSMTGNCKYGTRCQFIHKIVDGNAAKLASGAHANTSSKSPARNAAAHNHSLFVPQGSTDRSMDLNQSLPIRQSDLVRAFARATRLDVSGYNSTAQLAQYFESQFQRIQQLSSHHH
As to the kind of experiment: disruptors of C. elegans POS-1 RNA interaction – biochemical, fluorescence polarization, dose response (AID 1964).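 Further: purified POS-1 fused to maltose binding protein made in E. coli; potency of compounds blocking POS-1 binding to fluorescent RNA.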

Data set [14] concerns the target T5, Zinc finger protein mex-5 (Caenorhabditis elegans, UniProt Q9XUB2).
T5 sequence (Q9XUB2 whole entry): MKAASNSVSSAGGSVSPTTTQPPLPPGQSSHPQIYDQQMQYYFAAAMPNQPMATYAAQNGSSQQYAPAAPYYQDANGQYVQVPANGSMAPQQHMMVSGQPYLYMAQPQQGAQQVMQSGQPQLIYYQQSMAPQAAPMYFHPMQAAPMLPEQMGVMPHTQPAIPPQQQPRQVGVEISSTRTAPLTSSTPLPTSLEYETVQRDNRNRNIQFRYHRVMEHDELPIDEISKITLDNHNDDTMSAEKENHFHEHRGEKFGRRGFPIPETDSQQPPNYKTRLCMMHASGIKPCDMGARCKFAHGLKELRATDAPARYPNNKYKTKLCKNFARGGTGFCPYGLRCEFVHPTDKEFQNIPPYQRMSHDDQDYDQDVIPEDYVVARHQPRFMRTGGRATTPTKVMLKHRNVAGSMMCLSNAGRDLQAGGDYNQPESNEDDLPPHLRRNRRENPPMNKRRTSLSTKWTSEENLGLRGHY
As to the kind of experiment: potency of MEX-5 RNA-binding blockers – biochemical, C. elegans, fluorescence polarization, dose response (AID 1960).

Data set [15] addresses Cytochrome P450 2C9 (Homo sapiens, UniProt P11712).

Chain of Cytochrome P450 2C19 (P33261 whole entry): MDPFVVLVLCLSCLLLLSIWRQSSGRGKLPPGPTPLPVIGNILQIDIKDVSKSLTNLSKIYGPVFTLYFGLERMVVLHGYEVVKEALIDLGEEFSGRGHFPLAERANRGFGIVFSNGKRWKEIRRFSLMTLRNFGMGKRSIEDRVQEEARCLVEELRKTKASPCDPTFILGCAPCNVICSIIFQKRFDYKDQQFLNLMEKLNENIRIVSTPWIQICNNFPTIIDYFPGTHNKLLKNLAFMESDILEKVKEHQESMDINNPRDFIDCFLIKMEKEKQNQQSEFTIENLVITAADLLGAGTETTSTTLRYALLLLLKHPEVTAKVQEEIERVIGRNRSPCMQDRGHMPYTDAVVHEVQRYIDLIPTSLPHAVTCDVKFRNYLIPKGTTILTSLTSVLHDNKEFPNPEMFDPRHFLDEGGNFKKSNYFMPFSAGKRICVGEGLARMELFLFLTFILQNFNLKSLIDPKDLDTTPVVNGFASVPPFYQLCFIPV
Chain of Cytochrome P450 2D6 (P10635 whole entry): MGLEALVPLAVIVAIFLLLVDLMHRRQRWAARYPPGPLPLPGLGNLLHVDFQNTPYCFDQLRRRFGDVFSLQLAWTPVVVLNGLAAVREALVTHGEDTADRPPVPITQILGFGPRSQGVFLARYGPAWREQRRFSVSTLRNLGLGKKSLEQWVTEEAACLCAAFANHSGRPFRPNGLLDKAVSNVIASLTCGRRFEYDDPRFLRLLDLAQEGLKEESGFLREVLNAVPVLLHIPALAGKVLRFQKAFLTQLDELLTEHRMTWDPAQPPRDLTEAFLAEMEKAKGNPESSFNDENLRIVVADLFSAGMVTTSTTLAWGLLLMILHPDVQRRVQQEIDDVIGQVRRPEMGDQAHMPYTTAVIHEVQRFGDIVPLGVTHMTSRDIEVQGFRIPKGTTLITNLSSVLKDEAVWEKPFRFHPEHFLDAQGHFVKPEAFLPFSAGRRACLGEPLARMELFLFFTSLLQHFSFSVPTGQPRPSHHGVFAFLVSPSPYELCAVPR
Chain of Cytochrome P450 2C9 (P11712 whole entry): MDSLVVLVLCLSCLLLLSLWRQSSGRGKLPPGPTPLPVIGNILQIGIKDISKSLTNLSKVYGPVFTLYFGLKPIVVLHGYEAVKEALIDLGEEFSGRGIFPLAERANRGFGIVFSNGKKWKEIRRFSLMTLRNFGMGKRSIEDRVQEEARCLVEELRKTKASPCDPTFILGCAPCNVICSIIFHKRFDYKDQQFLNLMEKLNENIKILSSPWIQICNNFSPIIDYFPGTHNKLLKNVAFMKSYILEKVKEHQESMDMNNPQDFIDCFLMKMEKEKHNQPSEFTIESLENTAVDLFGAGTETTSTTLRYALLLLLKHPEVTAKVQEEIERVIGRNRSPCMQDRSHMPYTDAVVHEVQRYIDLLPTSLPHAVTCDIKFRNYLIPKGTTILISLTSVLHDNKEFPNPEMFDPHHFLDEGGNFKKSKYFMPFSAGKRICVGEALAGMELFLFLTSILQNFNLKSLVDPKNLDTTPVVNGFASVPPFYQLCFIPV

As to `CCc1ccc(OCCCC(=O)Nc2ccc(N3CCCCC3)cc2)cc1`, the AC50 in [1] (read-out: AC50) was 10 µM (inconclusive); in data set [2] it was 1.26 µM (inconclusive). As for `CCn1nnc2sc3c(c2c1=O)CCC(C)C3` (stereo not drawn), in [3], the IC50 was > 100 µM (inactive). The same measure, in the same setting: under `Cc1oncc1-c1csc(-c2ccccc2Cl)n1` stands > 100 µM (inactive). In the case of `Cc1nn(-c2ccccc2)c(N)c1C(c1ccc(C(C)C)cc1)c1c(C)nn(-c2ccccc2)c1N`, in [4], the CC50 is > 40 µM (active). Regarding `Cc1cc2cc(CNC(=O)CCC(=O)O)ccc2n1C`, the IC50 in [3] is > 100 µM (inactive). Consider `Cc1ccc(S(=O)(=O)CCC(=O)Nc2nc3c(s2)CCCC3)cc1`, for which, in [5], the CC50 is 32.3 µM (active). The AC50 was 28.2 µM (inconclusive) in data set [2] and 15.8 µM (inconclusive) in data set [6]. On to `N=C(N)Nc1ccc(Cl)cc1`, for which the half-maximal activity concentration (AC50) result was “inconclusive” in data set [1] and 31.6 µM (inconclusive) in data set [2]. Consider `CCCNC(=O)COC(=O)C1CCN(S(=O)(=O)c2ccc3c(c2)OCCO3)CC1`, for which, in data set [3], the IC50 is > 100 µM (inactive). On to `COC(=O)c1cc(NS(=O)(=O)c2ccc(N3CCCCC3)c([N+](=O)[O-])c2)cc(C(=O)OC)c1`, for which the AC50 was 2.51 µM (inconclusive) in data set [1] (read-out: AC50), 10 µM (inconclusive) in data set [2] and 15.8 µM (inconclusive) in data set [6]. As for `CN(C)c1ccc(-c2cc(O)c3ncccc3c2)cc1`, the CC50 in [4] is 23.2 µM (active). Moreover, the results for the concentration at half-maximal activity (AC50) in data set [7] and in data set [8] were 7.11 µM (active) and 5.16 µM (active), respectively. With `COCCCN=C(S)N(CCO)Cc1cc2cc3c(cc2nc1O)OCCO3`, the IC50 in data set [9] and in [10] was > 66 µM (inactive) throughout. As for `CCN(CCO)C[C@H]1CCC[C@H]2CCCC[C@@H]21`, the AC50 in data set [2] is 6.31 µM (inconclusive).

Regarding `c1csc(CSc2nc3ccccc3s2)c1`, the EC50 in [11] was 1.12 µM (active); in data set [12] it was 36.9 µM (active). Further, in [3], the IC50 was 27.5 µM (active). As for `CCc1cc(C(=O)c2ccccc2OC)c(N)s1`, the IC50 in [9] and in data set [10] was > 66 µM (inactive) throughout.

Turning to `O=C1c2ccccc2-c2cc3ccccc3cc21`, the IC50 in [9] and in data set [10] was > 66 µM (inactive) each time. In the case of `O=C(CN1C(=O)S/C(=C\c2ccccc2)C1=O)NCCCn1ccnc1`, the IC50 in data set [9] and in data set [10] was > 66 µM (inactive) in each case. Take `Nc1c(NCCC2=CCCCC2)c(=O)[nH]c(=O)n1Cc1ccccc1`: the figures for the EC50 in data set [13] and in [14] were 23.2 µM (active) and 13.9 µM (active), respectively. As for `Cc1ccc(-c2c(C)nn3c(N4CCOCC4)cc(C)nc23)cc1`, the IC50 in data set [3] is > 100 µM (inactive). On to `CN(C)c1ncc2nc(-c3cccc(C#N)c3)c(=O)n(CCC#N)c2n1`, for which the AC50 in [2] is 39.8 µM (inconclusive); in [15] it was “inconclusive”. On to `O=C(NCc1ccco1)c1sc2cc(F)ccc2c1Cl`, for which the IC50 in data set [3] is > 100 µM (inactive). Turning to `O=C(NNC(=O)c1cnccn1)c1ccc(Cl)cc1`, the half-maximal effective concentration (EC50) was 95.9 µM (active) in data set [13] and 12.4 µM (active) in data set [14].

Take `CC(C)(C)C1CCc2sc(-c3nnc(CCl)o3)cc2C1` (stereo not drawn): the CC50 in [4] is 21 µM (active).

Consider `CCOc1ccccc1N=C(S)NNS(=O)(=O)c1c(C)cc(C)cc1C`, for which the IC50 in data set [9] and in [10] was > 66 µM (inactive) throughout. In the case of `Cc1ccc(C2=NN(S(C)(=O)=O)C(c3ccc4c(c3)OCO4)C2)cc1` (stereo not drawn), in [3], the IC50 is > 100 µM (inactive). Same read-out and setting: under `CC(C)Cn1c(N)c(C(=O)CSc2nnnn2C)c(=O)n(C)c1=O` stands > 100 µM (inactive).

`COc1ccc(NC(S)=Nc2cccc(Cl)c2)cc1OC`: the IC50 in [9] and in data set [10] was > 66 µM (inactive) throughout. For `O=C(CSc1nc2cc(Br)c[nH]c-2n1)Nc1ccc2c(c1)OCO2`, the CC50 in data set [4] was > 40 µM (active).

Take `c1ccc(Cn2nnc3c(NCCN4CCOCC4)ncnc32)cc1`: in data set [3], the IC50 is > 100 µM (inactive). In the case of `CC[C@@H]1CN2CCc3cc(OC)c(OC)cc3[C@H]2C[C@@H]1C[C@@H]1NCCc2cc(O)c(OC)cc21`, the AC50 in data set [2] was 10 µM (inconclusive). Consider `O=C(NC(=S)Nc1ccc2oc(=O)ccc2c1)c1ccco1`, for which the IC50 in data set [9] and in data set [10] was > 66 µM (inactive) each time.

For `O=C(CCN1C(=O)/C(=C\C=C\c2ccccc2)SC1=S)Nc1ccc(C(=O)O)cc1`, the EC50 in data set [13] is > 300 µM (not active); in data set [14], 38.7 µM (active).

On to `Cc1ccc2c(c1)C(c1ccc(N3CCOCC3)cc1)=NNC(c1cccs1)=N2`, for which the CC50 in data set [4] was 38.6 µM (active).

Regarding `COc1cccc(C(=O)NCC(=O)NNc2ncnc(N)c2[N+](=O)[O-])c1`, the EC50 in [13] was > 300 µM (inconclusive); in data set [14], < 0.06 µM (inconclusive). Turning to `Fc1ccc(Nc2ncncc2-c2ccccc2C(F)(F)F)cc1`, the results for the half-maximal activity concentration (AC50) in data set [2] and in data set [6] were 39.8 µM (inconclusive) and 20 µM (inconclusive), respectively. Regarding `CS(=O)(=O)N1CCC2(CCN(c3ccncc3)CC2)CC1`, the AC50 in data set [2] was 25.1 µM (inconclusive). On to `NS(=O)(=O)c1ccc(NC(S)=NNC(=O)CCC(=O)Nc2ccccc2Cl)cc1`, for which the concentration giving a half-maximal response (EC50) in [13] was 13 µM (inconclusive); in data set [14], 12.2 µM (active). On to `CN(C)c1ccc(/C=C(\C#N)C(=O)Nc2nc3c(s2)CCN(Cc2ccccc2)C3)cc1`, for which, in data set [3], the IC50 was > 100 µM (inactive).

Regarding `CCOc1cc(CNCCSc2nnnn2C)cc(Br)c1OCc1ccc(F)cc1`, the IC50 in [3] is 6.7 µM (active). For `O[C@@H](c1cc(C(F)(F)F)nc2c(Cl)cc(Cl)cc12)[C@@H]1CCCCN1`, the AC50 in data set [2] is 3.16 µM (inconclusive).

(Values after ChEMBL document CHEMBL1201862, “PubChem BioAssay data set” (2004).)
